# ChEMBL document CHEMBL4483862, “Open-source discovery of chemical leads for next-generation chemoprotective antimalarials” (2018)
# System: Plasmodium berghei
# Experiment: Luciferase/luciferin-expressing antifolate-resistant parasites were used to infect a culture of HepG2 cells that were pre-incubated with compounds. Infected hepatocytes emit light due to the luciferase reaction. Assay results are presented as the percent inhibition of light emission compared to control. […]
# Type: functional
# Details: sporozoite; for IC90: read-out: LUCIFERASE INFECTION ASSAY - IC90
# [1] = read-out: LUCIFERASE INFECTION ASSAY - IC50
SMILES,IC50 [1],IC90,other results
Clc1cccc(-c2cc3c(Nc4ccccn4)nccc3[nH]2)c1,6.48 µM,6.66 µM,–
Cc1cccc(-[n+]2c(C)cc(C=C3Sc4ccc5ccccc5c4N3C)cc2C)c1,–,0.685 µM,"IC50 (HEPG2TOX_HILL_SLOPE 1.04, HEPG2TOX_R_SQUARED 0.832, PBLUC_HILL_SLOPE 4.15, PBLUC_R_SQUARED 0.768, read-out: LUCIFERASE INFECTION ASSAY - IC50): 0.403 µM"
CCn1c(C)nc2cc(C(=O)NNC(=O)c3cc4c(C)nn(-c5cccc(C(F)(F)F)c5)c4s3)ccc21,> 10 µM,> 10 µM,–
COc1ccc(-c2nnc3ccc(-c4ccc5ncccc5c4)cn23)cc1OC,–,0.0668 µM,"IC50 (HEPG2TOX_HILL_SLOPE 0.239, HEPG2TOX_R_SQUARED 0.342, PBLUC_HILL_SLOPE 2.22, PBLUC_R_SQUARED 0.642, read-out: LUCIFERASE INFECTION ASSAY - IC50): 0.0248 µM"
CCOc1cc(/C=C2\CSc3c(F)cccc3C2=O)cc(Cl)c1O,–,> 10 µM,"IC50 (PBLUC_HILL_SLOPE 15.8, PBLUC_R_SQUARED 0.377, read-out: LUCIFERASE INFECTION ASSAY - IC50): 9.68 µM"
COC(=O)c1cc(C(=O)OCC(=O)NCCC2=CCCCC2)cc([N+](=O)[O-])c1,> 10 µM,> 10 µM,–
Cc1cc(NCc2ccccn2)n2nc(C)c(-c3ccccc3Cl)c2n1,–,5.5 µM,"IC50 (HEPG2TOX_HILL_SLOPE 4.48, HEPG2TOX_R_SQUARED 0.152, PBLUC_HILL_SLOPE 2.08, PBLUC_R_SQUARED 0.431, read-out: LUCIFERASE INFECTION ASSAY - IC50): 1.91 µM"
CCOC(=O)c1sc(SC)c2c1CCc1c[nH]nc1-2,–,> 11.2 µM,"IC50 (FFLUC_HILL_SLOPE 10.3, FFLUC_R_SQUARED 0.371, read-out: LUCIFERASE INFECTION ASSAY - IC50): > 11.2 µM"
CC(C)C(=O)Nc1c(-c2ccc(Cl)c(Cl)c2)c(=O)c2ccccc2n1C,–,3.11 µM,"IC50 (PBLUC_HILL_SLOPE 11.7, PBLUC_R_SQUARED 0.375, read-out: LUCIFERASE INFECTION ASSAY - IC50): 2.58 µM"
O=C1Nc2ccc(F)cc2/C1=N/NC(=S)NC1CC2C=CC1C2 (stereo not drawn),–,1.38 µM,"IC50 (HEPG2TOX_HILL_SLOPE 0.956, HEPG2TOX_R_SQUARED 0.854, PBLUC_HILL_SLOPE 4.64, PBLUC_R_SQUARED 0.779, read-out: LUCIFERASE INFECTION ASSAY - IC50): 0.86 µM"
CC1CCc2sc(C(=O)Nc3cccc4c3C(=O)NC4)cc2C1 (stereo not drawn),3.61 µM,4.22 µM,–
O=C(NNC(=O)c1cnn(-c2ccccc2)c1C(F)(F)F)c1ccc2ccccc2n1,–,3.75 µM,"IC50 (HEPG2TOX_HILL_SLOPE 2.84, HEPG2TOX_R_SQUARED 0.957, PBLUC_HILL_SLOPE 16.4, PBLUC_R_SQUARED 0.688, read-out: LUCIFERASE INFECTION ASSAY - IC50): 3.28 µM"
O=C(N/N=C/c1c(-c2ccccc2)n(-c2ccccc2)c2ccccc12)C1COc2ccccc2O1 (stereo not drawn),–,> 10 µM,"IC50 (FFLUC_HILL_SLOPE 2.45, FFLUC_R_SQUARED 0.636, PBLUC_HILL_SLOPE 2.61, PBLUC_R_SQUARED 0.591, read-out: LUCIFERASE INFECTION ASSAY - IC50): 5.83 µM"
O=C(Nc1ccc(-c2nccs2)cc1)c1cc(Br)c[nH]1,7.5 µM,> 10 µM,–
CNc1nc2cnc(Nc3ccc(F)c(Cl)c3)cc2n1-c1cccc(C(F)(F)F)c1,> 10 µM,> 10 µM,–
Cc1cc(NC(c2cccc(Br)c2)c2ccc3cccnc3c2O)no1 (stereo not drawn),–,5.63 µM,"IC50 (FFLUC_HILL_SLOPE 0.447, FFLUC_R_SQUARED 0.211, HEPG2TOX_HILL_SLOPE 1.34, HEPG2TOX_R_SQUARED 0.983, PBLUC_HILL_SLOPE 2.79, PBLUC_R_SQUARED 0.445, read-out: LUCIFERASE INFECTION ASSAY - IC50): 2.56 µM"
Oc1ccc(-c2cnc3cnc(-c4ccccc4Cl)cn23)cc1,–,4.1 µM,"IC50 (HEPG2TOX_HILL_SLOPE 4.19, HEPG2TOX_R_SQUARED 0.981, PBLUC_HILL_SLOPE 3.43, PBLUC_R_SQUARED 0.853, read-out: LUCIFERASE INFECTION ASSAY - IC50): 2.16 µM"
CCCNc1cc(-c2ccccc2)nc(-n2nc(C)cc2C)n1,–,4.24 µM,"IC50 (PBLUC_HILL_SLOPE 8.43, PBLUC_R_SQUARED 0.511, read-out: LUCIFERASE INFECTION ASSAY - IC50): 3.27 µM"
O=C(COC(=O)c1cn(-c2ccccc2)nc1-c1cccs1)Nc1nnc(-c2ccccc2)o1,> 10 µM,> 10 µM,–
Clc1ccc2c(NCc3ccc(-n4cccn4)nc3)ncnc2c1,–,> 10 µM,"IC50 (PBLUC_HILL_SLOPE 1.57, PBLUC_R_SQUARED 0.509, read-out: LUCIFERASE INFECTION ASSAY - IC50): 3.37 µM"
CCOC(=O)/C(=N\Nc1cc(C(F)(F)F)ccc1Cl)N1CCN(C(c2ccccc2)c2ccccc2)CC1,4.97 µM,> 10 µM,–
O=C1OC(C=NC23CC4CC(CC(C4)C2)C3)c2ccccc21 (stereo not drawn),–,> 11.2 µM,"IC50 (PBLUC_HILL_SLOPE 9.77, PBLUC_R_SQUARED 0.255, read-out: LUCIFERASE INFECTION ASSAY - IC50): 9.81 µM"

SMILES,IC50 [1],IC90,other results
CCCCCn1c(SCC(=O)Nc2ccc(C(C)C)cc2)n[nH]c1=O,–,3.43 µM,"IC50 (HEPG2TOX_HILL_SLOPE 1.82, HEPG2TOX_R_SQUARED 0.814, PBLUC_HILL_SLOPE 12.7, PBLUC_R_SQUARED 0.412, read-out: LUCIFERASE INFECTION ASSAY - IC50): 2.89 µM"
O=C1N(Cc2ccccn2)C(=O)C2(CCN(Cc3cc4ccccc4o3)CC2)N1CCc1ccccc1,–,> 6.67 µM,"IC50 (HEPG2TOX_HILL_SLOPE 6.35, HEPG2TOX_R_SQUARED 0.629, PBLUC_HILL_SLOPE 2.7, PBLUC_R_SQUARED 0.846, read-out: LUCIFERASE INFECTION ASSAY - IC50): 4.34 µM"
O=C(NNC(=O)c1cnc2ccccc2n1)c1ccccc1,–,9.09 µM,"IC50 (HEPG2TOX_HILL_SLOPE 2.59, HEPG2TOX_R_SQUARED 0.855, PBLUC_HILL_SLOPE 4.42, PBLUC_R_SQUARED 0.625, read-out: LUCIFERASE INFECTION ASSAY - IC50): 5.53 µM"
Cc1cc(C)n(-c2nc(NCc3ccco3)cc(-c3ccccc3)n2)n1,–,> 9.55 µM,"IC50 (PBLUC_HILL_SLOPE 3.01, PBLUC_R_SQUARED 0.273, read-out: LUCIFERASE INFECTION ASSAY - IC50): 5.14 µM"
CS(=O)(=O)Nc1ccc(C(=N)NOC(=O)Nc2ccc(C(F)(F)F)cc2)cc1,> 7.93 µM,> 7.93 µM,–
Cc1ccc(S(=O)(=O)Oc2ccc(Cl)cc2Sc2cc(Cl)ccc2OS(=O)(=O)c2ccc(C)cc2)cc1,> 5.54 µM,> 5.54 µM,–
Cc1ccc(Nc2nc(COC(=O)c3ccccc3Sc3ccc(C(F)(F)F)cc3[N+](=O)[O-])cs2)cc1,> 10 µM,> 10 µM,–
CCC(C)(C)c1ccc(Oc2ccc(NC(=O)Nc3ccccc3OC)cc2)cc1,–,5.8 µM,"IC50 (HEPG2TOX_HILL_SLOPE 7.52, 1.98, HEPG2TOX_R_SQUARED 0.307, 0.635, PBLUC_HILL_SLOPE 2.78, 0.762, PBLUC_R_SQUARED 0.525, 0.659, read-out: LUCIFERASE INFECTION ASSAY - IC50): 1.08 µM"
CC1(C)Cc2c(C#N)c(Nc3ccccc3)nc(NCCCO)c2CO1,> 9.36 µM,> 9.36 µM,–
COc1cc(/C=N/NC(=S)Nc2cc(Cl)ccc2Cl)ccc1OS(=O)(=O)c1ccc(C)cc1,> 6.29 µM,> 6.29 µM,–
CN(C)CCNC(=O)c1ccc(-c2cn3c(-c4cccs4)cnc3cn2)cc1,–,> 8.43 µM,"IC50 (HEPG2TOX_HILL_SLOPE 7.97, HEPG2TOX_R_SQUARED 0.151, read-out: LUCIFERASE INFECTION ASSAY - IC50): > 8.43 µM"
C/C(=N\NC(=S)Nc1cccc(C(F)(F)F)c1)c1cc(Cl)ccc1O,–,> 8.51 µM,"IC50 (HEPG2TOX_HILL_SLOPE 6.81, HEPG2TOX_R_SQUARED 0.836, PBLUC_HILL_SLOPE 11, PBLUC_R_SQUARED 0.0541, read-out: LUCIFERASE INFECTION ASSAY - IC50): 7.79 µM"
O=C(Nc1cc(-c2cccs2)nn1-c1ccc(I)cc1)C1CCC1,–,> 7.34 µM,"IC50 (PBLUC_HILL_SLOPE 12.7, PBLUC_R_SQUARED 0.261, read-out: LUCIFERASE INFECTION ASSAY - IC50): 6.21 µM"
Cc1cc(NC(=O)C(Nc2ccc(N3CCCC3)c(C)c2)c2ccccc2)no1 (stereo not drawn),–,> 10 µM,"IC50 (FFLUC_HILL_SLOPE 3.98, FFLUC_R_SQUARED 0.653, PBLUC_HILL_SLOPE 2, PBLUC_R_SQUARED 0.333, read-out: LUCIFERASE INFECTION ASSAY - IC50): > 10 µM"
COc1cc(OC)cc(C(=O)Nc2nc(C(N)C3CCCCC3)cs2)c1 (stereo not drawn),5.25 µM,5.41 µM,–
CC(C)(C)OC(=O)N1CCN(CN2C(=O)NC3(CCCCC3)C2=O)CC1,> 10 µM,> 10 µM,–
Cc1nc(Sc2ncnc3sc4c(c23)CCC4)sc1CC(N)=O,–,1.96 µM,"IC50 (PBLUC_HILL_SLOPE 51.2, PBLUC_R_SQUARED 0.477, read-out: LUCIFERASE INFECTION ASSAY - IC50): 1.88 µM"
CCN(CC)c1ccc(/C=C(\C#N)C(=O)Nc2cccc(S(=O)(=O)N3CCCCC3)c2)cc1,–,> 10 µM,"IC50 (HEPG2TOX_HILL_SLOPE 7.51, HEPG2TOX_R_SQUARED 0.401, PBLUC_HILL_SLOPE 2.56, PBLUC_R_SQUARED 0.302, read-out: LUCIFERASE INFECTION ASSAY - IC50): 9.36 µM"
O=C(NCc1ccc(Cn2cccn2)cc1)N1CCN(c2ccc(C(F)(F)F)cc2[N+](=O)[O-])CC1,> 10 µM,> 10 µM,–
Cc1ccc(Cn2nnc(-c3ccccc3C)n2)cc1,> 12.5 µM,> 12.5 µM,–
CN(C(=O)CN1CCc2ccccc2C1)C1(C#N)CCCCC1,> 10 µM,> 10 µM,–
O=C(Nc1ccccc1)Nc1ccc(C(=O)Nc2cc(C(F)(F)F)ccc2N2CCOCC2)s1,–,5.82 µM,"IC50 (HEPG2TOX_HILL_SLOPE 11.7, HEPG2TOX_R_SQUARED 0.346, PBLUC_HILL_SLOPE 5.22, 24.2, PBLUC_R_SQUARED 0.290, 0.170, read-out: LUCIFERASE INFECTION ASSAY - IC50): 4.29 µM"
